Assay [1] concerns differentiated L6-myotubes. Description: Glucose uptake screen (Biological example 1 of WO 2019/053427). The assay is classed as cell-based. The following applies: compound at 10 μM, activity relative to isoproterenol at 10 μM, read-out: Biological example 1 of WO 2019/053427 (GU). The essentials:
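Rat L6 myoblasts were differentiated into myotubes over 7 days in 2% FBS, then serum-starved overnight. Cells were stimulated with 1×10^−5 M compound plus β2 antagonist ICI-118551 for 1 h 40 min and re-dosed for 20 min in glucose-free medium. Uptake of 50 nM ^3H-2-deoxyglucose over 10 min was counted after NaOH lysis.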

Assay [2] deals with differentiated L6-myotubes. As to the kind of experiment: cAMP production relative to isoprenaline (Biological example 2 of WO 2019/053427). Conditions: 0.25 h, compound at 10 μM, activity relative to isoproterenol at 10 μM. Type of assay: cell-based. The method in brief: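 Differentiated L6 myotubes stimulated 15 min with test compound or isoprenaline, each at final 1×10^−5 M, in HBSS with 1% BSA, 5 mM HEPES, 1 mM IBMX, pH 7.4. cAMP production by the compound expressed relative to that induced by the same concentration of isoprenaline.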

In the case of `CC(C)(C)NC[C@H](O)c1cccc(C(F)(F)F)n1` [Compound 397, (S)-2-(tert-butylamino)-1-[6-(trifluoromethyl)-2-pyridyl]-1-ethanol], the Emax at 10 µM is more than 75% in assay [1] and less than 25% in assay [2].

For the molecule `CCOC(=O)CO[C@H]1CC[C@H](C(C)(C)NC[C@H](O)c2cccc(F)c2)CC1` [Compound 398, ethyl[(1R,4r)-4-{1-[(R)-2-(m-fluorophenyl)-2-hydroxyethylamino]-1-methylethyl}cycloehxyloxy]acetate], the values for the Emax at 10 µM in assay [1] and in assay [2] were more than 75% and less than 25%, respectively.

In the case of `CC(C)(C[C@H]1CC[C@@H](C#N)CC1)NC[C@H](O)c1cccc(F)c1` [Compound 399, (1S,4s)-4-{2-[(R)-2-(m-fluorophenyl)-2-hydroxyethylamino]-2-methylpropyl)cyclohexanecarbonitrile], the Emax at 10 µM in assay [1] is more than 75%; in assay [2] it was 25 to 50%.

As for `COc1ccc(CC23CCC([C@@H](O)c4cccc(F)c4)(CC2)N3)cc1` [Compound 400, (S)-(m-fluorophenyl)(4-[(p-methoxyphenyl)methyl]-7-azabicyclo[2.2.1]hept-1-yl}methanol], the Emax at 10 µM was 50 to 75% in assay [1] and less than 25% in assay [2].

Turning to `COc1ccc(CC23CCC([C@H](O)c4cccc(F)c4)(CC2)N3)cc1` [Compound 401, (R)-(m-fluorophenyl){4-[(p-methoxyphenyl)methyl]-7-azabicyclo[2.2.1]hept-1-yl}methanol], the Emax at 10 µM in assay [1] was more than 75%; in assay [2], less than 25%.

With `CC(C)(NC[C@H](O)c1cccc(F)c1)[C@H]1CC[C@H](OCC(=O)O)CC1` [Compound 402, [(1R,r)-4-{1-[(R)-2-(m-fluorophenyl)-2-hydroxyethylamino]-1-methylethyl}cyclohexyloxy]acetic acid], the values for the Emax at 10 µM in assay [1] and in assay [2] were 50 to 75% and less than 25%, respectively.

For the molecule `O[C@@H](c1cncc(F)c1)[C@H]1CC[C@@H](Cc2ccc(Cl)cc2)N1` [Compound 403, (S)-{(2R,5S)-5-[(p-chlorophenyl)methyl]-2-pyrroldiinyl}(5-fluoro-3-pyridyl)methanol], the Emax at 10 µM in assay [1] is 50 to 75%; in assay [2] it was less than 25%.

Take `O[C@H](c1cncc(F)c1)[C@H]1CC[C@@H](Cc2ccc(Cl)cc2)N1` [Compound 404, (R)-{(2R,5S)-5-[(p-chlorophenyl)methyl]-2-pyrrolidinyl}(5-fluoro-3-pyridyl)methanol]: the Emax at 10 µM is more than 75% in assay [1] and less than 25% in assay [2].

As for `O[C@@H](c1cncc(F)c1)[C@H]1CC[C@H](Cc2ccc(Cl)cc2)N1` [Compound 405, (S)-{(2R,5R)-5-[(p-chlorophenyl)methyl]-2-pyrrolidinyl}(5-fluoro-3-pyridyl)methanol], the Emax at 10 µM in assay [1] was more than 75%; in assay [2] it was less than 25%.

With `O[C@H](c1cncc(F)c1)[C@H]1CC[C@H](Cc2ccc(Cl)cc2)N1` [Compound 406, (R)-{(2R,5R)-5-[(p-chlorophenyl)methyl]-2-pyrrolidinyl}(5-fluoro-3-pyridyl)methanol], the Emax at 10 µM in assay [1] is more than 75%; in assay [2] it was less than 25%.

Consider `CCOC(=O)CO[C@H]1CC[C@@H](C(C)(C)NC[C@H](O)c2cccc(F)c2)CC1` [Compound 407, ethyl [(1S,4s)-4-{1-[(R)-2-(m-fluorophenyl)-2-hydroxyethylamino]-1-methylethyl}cyclohexyloxy]acetate], for which the figures for the Emax at 10 µM in assay [1] and in assay [2] were 50 to 75% and less than 25%, respectively.

For `CC(C)(NC[C@H](O)c1cccc(F)c1)[C@H]1CC[C@@H](OCC(=O)O)CC1` [Compound 408, [(1S,4s)-4-{1-[(R)-2-(m-fluorophenyl)-2-hydroxyethylamino]-1-methylethyl}cyclohexyloxy]acetic acid], the Emax at 10 µM in assay [1] was 50 to 75%; in assay [2], less than 25%.

With `CCOC(=O)CO[C@H]1CC[C@H](C(C)(C)NC[C@H](O)c2cncc(F)c2)CC1` [Compound 409, ethyl [(1R,4r)-4-{1-[(R)-2-(5-fluoro-3-pyridyl)-2-hydroxyethylamino]-1-methylethyl}cyclohexyloxy]acetate], the Emax at 10 µM in assay [1] was more than 75%; in assay [2] it was less than 25%.

As for `CO[C@H]1CC[C@H](CCC23CCC([C@@H](O)c4cccc(F)c4)(CC2)N3)CC1` [Compound 410, (S)-(m-fluorophenyl)(4-{2-[(1r,4R)-4-methoxycyclohexyl]ethyl}-7-azabicyclo[2.2.1]hept-1-yl)methanol], the values for the Emax at 10 µM in assay [1] and in assay [2] were 50 to 75% and less than 25%, respectively.

Regarding `CO[C@H]1CC[C@H](CCC23CCC([C@H](O)c4cccc(F)c4)(CC2)N3)CC1` [Compound 411, (R)-(m-fluorophenyl)(4-{2-[(1r,4S)-4-methoxycyclohexyl]ethyl}-7-azabicyclo[2.2.1]hept-1-yl)methanol], the results for the Emax at 10 µM in assay [1] and in assay [2] were more than 75% and 50 to 75%, respectively.

In the case of `O[C@@H](c1cccc(F)c1)C12CCC(Cc3ccc(F)cc3)(CC1)N2` [Compound 412, (S)-(m-fluorophenyl){4-[(p-fluorophenyl)methyl]-7-azabicyclo[2.2.1]hept-1-yl}methanol], the Emax at 10 µM is 50 to 75% in assay [1] and less than 25% in assay [2].

As for `O[C@H](c1cccc(F)c1)C12CCC(Cc3ccc(F)cc3)(CC1)N2` [Compound 413, (R)-(m-florophenyl){4-[(p-fluorophenyl)methyl]-7-azabicyclo[2.2.1]hept-1-yl}methanol], the Emax at 10 µM in assay [1] is more than 75%; in assay [2], less than 25%.

As for `CC(C)(C[C@H]1CC[C@@H](NC(=O)OC(C)(C)C)CC1)NC[C@H](O)c1cccc(C#N)n1` [Compound 414], the Emax at 10 µM in assay [1] is 50 to 75%; in assay [2], less than 25%.

As for `CC(C)(C[C@H]1CC[C@H](N)CC1)NC[C@@H](O)c1cccc(C#N)n1` [Compound 415, 6-[(R)-2-{1,1-dimethyl-2-[(1r,4R)-4-aminocyclohexyl]ethylamino}-1-hydroxyethyl]-2-pyridinecarbonitrile], the Emax at 10 µM was 50 to 75% in assay [1] and less than 25% in assay [2].

As to `CC(C)(C[C@H]1CC[C@@H](N)CC1)NC[C@@H](O)c1cccc(C#N)n1` [Compound 416, 6-[(R)-2-{1,1-dimethyl-2-[(1s,4S)-4-aminocyclohexyl]ethylamino}-1-hydroxyethyl]-2-pyridinecarbonitrile], the Emax at 10 µM in assay [1] was 50 to 75%; in assay [2], less than 25%.

For the molecule `CC(C)(C[C@H]1CC[C@H](N)CC1)NC[C@H](O)c1cccc(C#N)n1` [Compound 417, 6-[(S)-2-{1,1-dimethyl-2-[(1r,4S)-4-aminocyclohexyl]ethylamino}-1-hydroxyethyl]-2-pyridinecarbontirile], the Emax at 10 µM in assay [1] was more than 75%; in assay [2], 25 to 50%.

As to `CC(C)(C[C@H]1CC[C@@H](N)CC1)NC[C@H](O)c1cccc(C#N)n1` [Compound 418, 6-[(S)-2-{1,1-dimethyl-2-[(1s,4R)-4-aminocyclohexyl]ethylamino}-1-hydroxyethyl]-2-pyridinecarbonitrile], the Emax at 10 µM in assay [1] is 50 to 75%; in assay [2], less than 25%.

On to `CC(C)(NC[C@H](O)c1cncc(F)c1)[C@H]1CC[C@H](OCC(=O)O)CC1` [Compound 419, [(1R,4r)-4-{1-[(R)-2-(5-fluoro-3-pyridyl)-2-hydroxyethylamino]-1-methylethyl}cyclohexyloxy]aetic acid], for which the Emax at 10 µM in assay [1] was 50 to 75%; in assay [2] it was less than 25%.

Regarding `CC(C)(C[C@H]1CC[C@H](NC(=O)OC(C)(C)C)CC1)NC[C@H](O)c1cccc(F)c1` [Compound 420], the Emax at 10 µM lay in the range of 50 to 75% in assay [1] and 25 to 50% in assay [2].

Consider `CC(=O)N[C@H]1CC[C@@H](CC(C)(C)NC[C@H](O)c2cccc(C#N)n2)CC1` [Compound 421, N-[(1R,4s)-4-{2-[(S)-2-(6-cyano-2-pyridyl)-2-hydroxyethylamino]-2-methylpropyl}cyclohexyl]acetamide], for which the Emax at 10 µM in assay [1] is more than 75%; in assay [2], less than 25%.

For the molecule `CC(C)(C[C@H]1CC[C@@H](NS(C)(=O)=O)CC1)NC[C@H](O)c1cccc(C#N)n1` [Compound 422, 6-[(S)-2-{1,1-dimethyl-2-[(1s,4R)-4-(mesylamino)cylcohexyl]ethylamino}-1-hydroxyethyl]-2-pyridinecarbonitrile], the figures for the Emax at 10 µM in assay [1] and in assay [2] were 50 to 75% and less than 25%, respectively.

Consider `CC(=O)N[C@H]1CC[C@@H](CC(C)(C)NC[C@@H](O)c2cccc(C#N)n2)CC1` [Compound 423, N-[(1S,4s)-4-{2-[(R)-2-(6-cyano-2-pyridyl)-2-hydroxyethylamino]-2-methylpropyl}cyclohexyl]acetamide], for which the Emax at 10 µM in assay [1] and in assay [2] was less than 25% each time.

For the molecule `CC(C)(C[C@H]1CC[C@@H](NS(C)(=O)=O)CC1)NC[C@@H](O)c1cccc(C#N)n1` [Compound 424, 6-[(R)-2-{1,1-dimethyl-2-[(1s,4S)-4-(mesylamino)cyclohexyl]ethylamino}-1-hydroxyethyl]-2-pyridinecarbonitrile], the Emax at 10 µM in assay [1] is 25 to 50%; in assay [2] it was less than 25%.

In the case of `CC(=O)N[C@H]1CC[C@H](CC(C)(C)NC[C@H](O)c2cccc(C#N)n2)CC1` [Compound 425, N-[(1S,4r)-4-{2-[(S)-2-(6-cyano-2-pyridyl)-2-hydroxyethylamino]-2-methylpropyl}cyclohexyl]acetamide], the Emax at 10 µM in assay [1] was more than 75%; in assay [2], 25 to 50%.

The values above are taken from patent US20260256751A1, “COMBINATION OF BETA-2-ADRENERGIC RECEPTOR AGONISTS AND GLP-1 RECEPTOR AGONISTS FOR USE IN TREATING HYPERGLYCAEMIA” (ATROGI AB, priority 2023, published 2026).
